Laboratory results: article PMC10407959 (Journal of medicinal chemistry, 2023)
Entries after “also recorded” stand apart in the source; their conditions may differ. Where two headings read alike, the source gives them in different places.

What was measured:
[1] = test system: cardiac ischemia-reperfusion (I/R) injury; assay: cardiac ischemia-reperfusion; format: in vivo, mouse; settings: 2 mg/kg/day minipump
[2] = male, Wistar, rat, in vivo, ip
[3] = test system: protease-mediated mouse model of allergic asthma; assay: protease-mediated mouse model of allergic asthma, BAL fluid cells; settings: 10 mg/kg i.p., C57BL/6J mice
mouse CCI model = assay: mouse model of chronic neuropathic pain; settings: for reversal of mechano-allodynia (paw withdrawal threshold): day 7 post-sciatic nerve constriction, adult male mice
hP2Y14R [4] = target: T1, hP2Y14R (Homo sapiens, UniProt Q15391); assay: whole-cell fluorescent competitive binding assay
T1 sequence (Q15391 1-338): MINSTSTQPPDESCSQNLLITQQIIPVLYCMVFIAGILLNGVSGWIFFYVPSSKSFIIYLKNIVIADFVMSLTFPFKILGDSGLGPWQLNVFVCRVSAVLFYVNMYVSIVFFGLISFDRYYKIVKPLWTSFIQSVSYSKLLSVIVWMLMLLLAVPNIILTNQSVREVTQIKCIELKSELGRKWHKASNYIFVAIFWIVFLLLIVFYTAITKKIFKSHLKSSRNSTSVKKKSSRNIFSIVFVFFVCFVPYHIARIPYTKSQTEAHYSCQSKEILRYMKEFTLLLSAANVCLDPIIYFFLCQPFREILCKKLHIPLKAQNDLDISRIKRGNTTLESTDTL

[5] = pharmacokinetics and tolerability in male Wistar rats
mP2Y14R = target: T2, mP2Y14R (Mus musculus, UniProt Q9ESG6); assay: whole-cell fluorescent binding assay at mP2Y14R expressed in HEK-293 cells
T2 sequence (Q9ESG6 1-338): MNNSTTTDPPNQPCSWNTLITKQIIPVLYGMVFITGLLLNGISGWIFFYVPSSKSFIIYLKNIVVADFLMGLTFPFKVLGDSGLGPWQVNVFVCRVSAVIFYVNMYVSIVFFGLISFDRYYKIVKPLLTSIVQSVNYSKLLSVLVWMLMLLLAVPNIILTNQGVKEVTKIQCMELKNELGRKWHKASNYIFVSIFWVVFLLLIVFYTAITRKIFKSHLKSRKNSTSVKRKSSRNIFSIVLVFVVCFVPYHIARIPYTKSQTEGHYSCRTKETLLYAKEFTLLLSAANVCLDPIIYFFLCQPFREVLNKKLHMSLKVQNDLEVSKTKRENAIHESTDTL

σ2 receptor = target: T3, σ2 receptor (Rattus norvegicus, UniProt Q5U3Y7); assay: PDSP off-target radioligand binding; settings: read-out: Ki, σ2 receptor; NIMH PDSP
T3 sequence (Q5U3Y7 1-176): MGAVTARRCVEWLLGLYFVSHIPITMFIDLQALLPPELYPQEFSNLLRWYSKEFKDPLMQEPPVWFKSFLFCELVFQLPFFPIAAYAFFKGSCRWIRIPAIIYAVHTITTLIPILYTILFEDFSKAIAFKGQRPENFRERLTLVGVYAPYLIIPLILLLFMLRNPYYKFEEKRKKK

HPLC-based Log D7.4 = format: physicochemical; settings: from HPLC retention factors, calibration with five standards
5-HT5A = 5-HT5A (Homo sapiens, UniProt P47898); assay: PDSP off-target radioligand binding
serotonin 5-HT1B = serotonin 5-HT1B (Homo sapiens, UniProt P28222); assay: PDSP off-target radioligand binding; settings: read-out: Ki, serotonin 5-HT1B; NIMH PDSP
σ1 receptor = σ1 receptor (Cavia porcellus, UniProt Q60492); assay: PDSP off-target radioligand binding; settings: read-out: Ki, σ1 receptor; NIMH PDSP
[6] = pharmacokinetics of mono-ester prodrug 63 s.c. in female CD1 mice; settings: 10 mg/kg s.c.
hP2Y14R [7] = target: T1, hP2Y14R; assay: fluorescent binding saturation study in whole CHO cells expressing hP2Y14R; settings: final concentrations of 53 of 2, 100, 500, and 20,000 nM
[8] = test system: Nonhuman primate (chimpanzee) P2Y14R; settings: read-out: IC50 (P2Y14R), ref Belley et al.[15]; cited from earlier work
[9] = in mouse; cited from earlier work
[10] = pharmacokinetics of double prodrug 62 p.o. in female CD1 mice; settings: 62 by oral gavage (p.o.)

Chain of 5-HT5A (P47898 whole entry, species assumed): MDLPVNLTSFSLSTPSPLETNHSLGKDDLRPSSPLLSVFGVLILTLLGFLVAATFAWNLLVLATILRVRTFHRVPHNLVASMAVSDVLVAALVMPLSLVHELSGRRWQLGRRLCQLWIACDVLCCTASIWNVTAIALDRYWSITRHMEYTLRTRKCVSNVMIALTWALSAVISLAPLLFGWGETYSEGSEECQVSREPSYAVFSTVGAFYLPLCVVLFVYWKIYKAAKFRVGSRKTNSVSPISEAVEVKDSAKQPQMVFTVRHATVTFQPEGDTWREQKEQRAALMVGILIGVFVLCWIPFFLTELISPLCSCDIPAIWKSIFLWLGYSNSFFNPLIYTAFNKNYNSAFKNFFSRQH
Chain of serotonin 5-HT1B (P28222 whole entry): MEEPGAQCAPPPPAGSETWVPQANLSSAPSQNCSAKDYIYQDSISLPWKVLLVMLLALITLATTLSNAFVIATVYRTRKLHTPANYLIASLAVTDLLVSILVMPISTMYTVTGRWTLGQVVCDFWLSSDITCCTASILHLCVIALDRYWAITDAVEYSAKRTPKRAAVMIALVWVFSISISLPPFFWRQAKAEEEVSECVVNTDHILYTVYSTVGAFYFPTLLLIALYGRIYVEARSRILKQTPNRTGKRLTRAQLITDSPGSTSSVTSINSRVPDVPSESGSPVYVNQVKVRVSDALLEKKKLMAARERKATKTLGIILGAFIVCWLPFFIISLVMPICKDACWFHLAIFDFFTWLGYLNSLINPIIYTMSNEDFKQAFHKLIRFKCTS
Chain of σ1 receptor (Q60492 whole entry): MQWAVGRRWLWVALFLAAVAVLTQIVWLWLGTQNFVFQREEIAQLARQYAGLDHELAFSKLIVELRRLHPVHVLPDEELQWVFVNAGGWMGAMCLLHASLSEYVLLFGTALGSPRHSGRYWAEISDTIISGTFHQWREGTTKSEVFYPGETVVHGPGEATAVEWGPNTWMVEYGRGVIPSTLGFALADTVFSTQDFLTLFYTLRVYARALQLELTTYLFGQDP

In the case of `O=C(O)c1cc(-c2ccc([C@]3(O)[C@@H]4CNC[C@H]3C4)cc2)c2ccc(-c3ccc(C(F)(F)F)cc3)cc2c1` [compound 15, 4-(4-((1R,5S,6r)-6-Hydroxy-3-azabicyclo[3.1.1]heptan-6-yl)-phenyl)-7-(4-(trifluoromethyl)phenyl)-2-naphthoic Acid], the “protection against heart I/R injury” value [1] is reported as “no protection against heart I/R injury”, the Maximal plasma concentration ([2]; 1 mg/kg) is reported as 0.50 µM and the Maximal plasma concentration ([2]; 3 mg/kg) is reported as 1.3 µM. The Maximal plasma concentration ([2]; 10 mg/kg) was 4.0 µM, the “airway eosinophilia (eosinophils in BAL fluid)” value (“airway eosinophilia” for short) [3] was “demonstrated significant protection” and the “lymphocytes in the BAL fluid” value [3] was “trend toward lower lymphocytes”. The “reversal of mechano-allodynia (paw withdrawal threshold)” value (from here on “reversal of mechano-allodynia”) (mouse CCI model; 10 μmol/kg, p.o. (oral gavage)) was “nearly complete protection at 1 h; also recorded: reversed the mechano-allodynia”, the “reversal of mechano-allodynia” value (mouse CCI model; i.p. injection) was “full reversal of mechano-allodynia within 0.5 h” and the “duration of the protection” value (mouse CCI model; oral gavage, 10 μmol/kg, 1 and 15 in the same CCI experiment) was “longer than protection by 1”. For the same compound, the “ligand efficiency (LE)” value (hP2Y14R [4]) was 0.311, the “mortality or morbidity / tolerability” value ([5]; male Wistar rats, 1, 3, and 10 mg/kg i.p. and 0.5 mg/kg i.v.) was “well tolerated” and the half-life ([5]; male, Wistar, rat, plasma, ip, 3 mg/kg) was 4.3 h. The “mP2Y14R affinity higher than reference antagonist 1” value (mP2Y14R) was 4.5 fold.
With “Mixture of 4-(4-(2,3,6,7-Tetrahydro-1H-azepin-4-yl)phenyl)-7-(4-(trifluoromethyl)phenyl)-2-naphthoic Acid and 4-(4-(2,5,6,7-Tetra-hydro-1H-azepin-4-yl)phenyl)-7-(4-(trifluoromethyl)phenyl)-2-naphthoic Acid [compound 17]” the Ki (σ2 receptor) was 3900 nM, the “Log D7.4” value (HPLC-based Log D7.4) was 2.2±0.0 and the Ki (5-HT5A; read-out: Ki, 5-HT5A, NIMH PDSP) was 4000 nM. The Ki (hP2Y14R [4]) was 6.92 nM, the IC50 (hP2Y14R [4]; read-out: IC50 (nM), affinity at hP2Y14R, whole-cell fluorescent binding, tracer 52 (20 nM), hP2Y14R-CHO cells, n = 3–4 unless noted) was 11.9 ± 3.6 nM and the Ki (serotonin 5-HT1B) was 4100 nM. For the same compound, the Ki (σ1 receptor) was 840 nM.
With `CN(C)C(=O)COC(=O)c1cc(-c2ccc([C@H]3C[C@H]4C[C@@H]3CN4)cc2)c2ccc(-c3ccc(C(F)(F)F)cc3)cc2c1` [compound 63, reference compound] the “in vivo cleavage of prodrug to active drug 2b” value [6] was “rapid cleavage of the ester group” and the “reversal of mechano-allodynia” value (mouse CCI model; 10 μmol/kg, p.o. (oral gavage)) was “fully efficacious within 1 h”.
In the case of `O=C(O)c1cc(-c2ccc(C3=C[C@H]4CNC[C@@H]4C3)cc2)c2ccc(-c3ccc(C(F)(F)F)cc3)cc2c1` (racemic) [compound 12, rac-4-(4-((3aR,6aR)-1,2,3,3a,4,6a-Hexahydrocyclopenta[c]-pyrrol-5-yl)phenyl)-7-(4-(trifluoromethyl)phenyl)-2-naphthoic Acid], the “more potent at the mP2Y14R (vs human)” value (mP2Y14R) is reported as 3 fold.
For `C[Si]1(C)C2=CC(=[N+]3CCC3)C=CC2=C(c2cc(C(=O)NCCCCCCn3cc(CCCCN4CCC(c5ccc(-c6cc(C(=O)O)cc7cc(-c8ccc(C(F)(F)F)cc8)ccc67)cc5)CC4)nn3)ccc2C(=O)[O-])c2ccc(N3CCC3)cc21` [compound 53], the “specific binding in whole CHO cells expressing the hP2Y14R” value (hP2Y14R [7]) was “did not demonstrate potent specific binding”.
For `CCOC(=O)N1C[C@H]2C[C@@H]1C[C@@H]2c1ccc(-c2cc(C(=O)OCC(=O)N(C)C)cc3cc(-c4ccc(C(F)(F)F)cc4)ccc23)cc1` [compound 64, reference compound], the “reversal of mechano-allodynia” value (mouse CCI model; i.p. injection) was “provided benefit”.
In the case of `O=C(O)c1cc(-c2ccc(C3(O)C[C@H]4CNC[C@@H]4C3)cc2)c2ccc(-c3ccc(C(F)(F)F)cc3)cc2c1` (racemic) [compound 11, rac-4-(4-((3aR,6aR)-5-Hydroxyoctahydrocyclopenta[c]pyrrol-5-yl)phenyl)-7-(4-(trifluoromethyl)phenyl)-2-naphthoic Acid], the “reversal of mechano-allodynia” value (mouse CCI model; i.p. injection) is reported as “maintained over 3 h” and the Ki (5-HT5A) is reported as 2400 nM.
With `O=C(O)c1cc(-c2ccc(C3CCNCC3)cc2)c2ccc(-c3ccc(C(F)(F)F)cc3)cc2c1` [compound 1, 4-(4-(Piperidin-4-yl)phenyl)-7-(4-(trifluoromethyl)phenyl)-2-naphthoic Acid, reference compound] the “airway eosinophilia” value [3] was “reduce airway eosinophilia”, the “lymphocytes in the BAL fluid” value [3] was “trend toward lower lymphocytes” and the “reversal of mechano-allodynia” value (mouse CCI model; 10 μmol/kg, p.o. (oral gavage)) was “full reversal of mechano-allodynia; also recorded: reversed the mechano-allodynia”. The IC50 [8] was 2.2 nM and the oral bioavailability [9] was 5 % F.
With `O=C(Cc1ccc(C(F)(F)F)cc1)Nc1cccc(-c2nc3cc(Cl)ccc3o2)c1` [4a, reference compound] the binding inhibition (hP2Y14R [4]; up to 100 μM, tracer 52, hP2Y14R-expressing CHO cells) was “no binding inhibition”.
In the case of `O=C(O)c1cc(-c2ccc(C3CCCNCC3)cc2)c2ccc(-c3ccc(C(F)(F)F)cc3)cc2c1` (stereo not shown) [compound 16, 4-(4-(Azepan-4-yl)phenyl)-7-(4-(trifluoromethyl)phenyl)-2-naphthoic Acid], the “reversal of mechano-allodynia” value (mouse CCI model; i.p. injection) is reported as “provided benefit” and the Ki (5-HT5A) is reported as 4800 nM.
In the case of `CCOC(=O)N1C[C@H]2C[C@@H](C1)[C@@]2(O)c1ccc(-c2cc(C(=O)OCC(=O)N(C)C)cc3cc(-c4ccc(C(F)(F)F)cc4)ccc23)cc1` [compound 50, Ethyl (1R,5S,6r)-6-(4-(3-((2-(Dimethylamino)-2-oxoethoxy)-carbonyl)-6-(4-(trifluoromethyl)phenyl)naphthalen-1-yl)phenyl)-6-hydroxy-3-azabicyclo[3.1.1]heptane-3-carboxylate], the “airway eosinophilia” value [3] is reported as “lack of activity” and the “reversal of mechano-allodynia” value (mouse CCI model; 10 μmol/kg, p.o. (oral gavage)) is reported as “reversed the mechano-allodynia”.
In the case of `CCOC(=O)N1CCC(c2ccc(-c3cc(C(=O)OCC(=O)N(C)C)cc4cc(-c5ccc(C(F)(F)F)cc5)ccc34)cc2)CC1` [compound 62, Ethyl 4-(4-(3-((2-(Dimethylamino)-2-oxoethoxy)carbonyl)-6-(4-(trifluoromethyl)phenyl)naphthalen-1-yl)phenyl)piperidine-1-carboxylate], the oral bioavailability [10] is reported as 6.9 % F, the peak concentration [10] is reported as ~ 2 μg/mL and the “reversal of mechano-allodynia” value (mouse CCI model; i.p. injection) is reported as “provided benefit”.
